Test results from patent US11795204B2 (Zealand Pharma A/S, priority 2012, dated 2023).
Square brackets hold non-standard residues; d marks the D form. Peptide text beside a SMILES is read from it. Dab = NCC[C@H](N)C(=O)O; Aib = CC(C)(N)C(=O)O

What was measured:
[1] = Chemical stability assessment (RP-HPLC normalized purity); type: physicochemical; conditions: for Normalized purity pH 4.0 after 14 days: 1 mg/ml in 50 mM acetate buffer pH 4.0, 40° C.; for Normalized purity pH 7.5 after 14 days: 1 mg/ml in 50 mM phosphate buffer pH 7.5, 40° C.
Description: Samples were placed in glass vials and incubated at 40° C. The samples were analysed by reverse-phase HPLC on a C18 column with gradient elution using an acetonitrile/trifluoroacetic acid/water eluent system. The area-percentage (area-%) of the main peak after incubation time T=t (relative to time T=0) was detected by UV spectrometry at 220 nm. The purity was first determined as follows: Purity(area-%)=(area of main peak/total area of all peaks)×100. […] Normalized purity values in Table 2 were determined after 14 days of incubation.

physchem = conditions: pH 7.5
Description: A stock solution of the test peptide (2 mg/ml; determined by measurement of the absorption of the solution at 280 nm, and using the theoretical extension coefficient based on the content of tryptophan and tyrosine in the peptide) in demineralized water adjusted to pH 2.5 with HCl was prepared, and aliquots were diluted 1:1 in 100 mM acetate buffer (pH 4.0) and 100 mM phosphate buffer (pH 7.5), respectively, and loaded in a standard flat-bottom, non-sterile 96-well UV Microplate. The absorbance of samples (single samples, n=1) at 280 and 325 nm was measured in an absorbance-based plate reader, which was preheated to ambient temperature.

human Glucagon-R = biological target: T1, human Glucagon-R (Homo sapiens, UniProt P47871); test: Glucagon receptor assay (cAMP induction, AlphaScreen); type: cell-based; conditions: HEK293 cells expressing the human Glucagon-R, 15 min at 37° C., read-out: GCG-R EC50 in vitro
T1 construct: expressed in transfected cells
Description: The 5′-end primers additionally encoded a near-Kozak consensus sequence to ensure efficient translation. […] 48 hr after transfection, cells were seeded for limited dilution cloning and selected with 1 mg/ml G418 in the culture medium.
On the day of analysis, growth medium was removed and the cells were washed once with […] of the included Assay buffer with IBMX. Cells were incubated in […] Assay buffer/IBMX containing increasing concentrations of test peptides for 15 min at 37° C. Then the peptides/Assay buffer was removed and cells were lysed by addition of […] Lysis buffer pr. well and incubation for at least 10 min at room temperature. From each well […] cell lysate was transferred to a 384-well OptiPlate and mixed with Donor and Acceptor beads and incubated for 1 h at room temperature. The cAMP content was measured on an Envision plate reader.

T1 sequence (P47871 26-477): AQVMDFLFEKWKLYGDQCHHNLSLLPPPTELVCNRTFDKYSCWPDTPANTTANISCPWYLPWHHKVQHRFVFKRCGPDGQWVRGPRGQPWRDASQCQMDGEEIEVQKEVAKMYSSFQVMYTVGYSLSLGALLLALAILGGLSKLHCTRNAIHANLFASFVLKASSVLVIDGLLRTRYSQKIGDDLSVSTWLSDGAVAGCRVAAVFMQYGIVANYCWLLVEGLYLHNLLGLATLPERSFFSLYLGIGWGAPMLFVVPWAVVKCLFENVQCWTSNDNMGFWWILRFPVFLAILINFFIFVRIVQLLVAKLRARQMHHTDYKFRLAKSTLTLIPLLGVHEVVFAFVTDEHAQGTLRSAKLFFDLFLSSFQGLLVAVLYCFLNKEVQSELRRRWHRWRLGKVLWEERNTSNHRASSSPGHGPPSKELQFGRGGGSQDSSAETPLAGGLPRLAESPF

Row | SMILES | Normalized purity pH 4.0 after 14 days [1] [%] | Normalized purity pH 7.5 after 14 days [1] [%] | solubility (physchem) [µg/mL] | EC50 (human Glucagon-R) [pM]
1 | CC(C)C[C@H](NC(=O)[C@H](Cc1c[nH]c2ccccc12)NC(=O)[C@H](CCCCN)NC(=O)[C@@H](NC(=O)[C@H](Cc1ccccc1)NC(=O)[C@H](CO)NC(=O)[C@H](CCC(=O)O)NC(=O)[C@H](C)NC(=O)[C@H](CCCNC(=N)N)NC(=O)[C@H](C)NC(=O)C(C)(C)NC(=O)[C@H](CC(=O)O)NC(=O)[C@H](CC(C)C)NC(=O)[C@H](Cc1ccc(O)cc1)NC(=O)[C@H](CCCCN)NC(=O)[C@H](CO)NC(=O)[C@H](Cc1ccc(O)cc1)NC(=O)[C@H](CC(=O)O)NC(=O)[C@H](CO)NC(=O)[C@@H](NC(=O)[C@H](Cc1ccccc1)NC(=O)[C@@H](NC(=O)[C@@H](C)NC(=O)[C@H](CCC(N)=O)NC(=O)[C@H](CO)NC(=O)[C@@H](N)Cc1c[nH]cn1)[C@@H](C)O)[C@@H](C)O)C(C)C)C(=O)N[C@@H](CCC(=O)O)C(=O)N[C@@H](CO)C(=O)N[C@H](C(=O)O)[C@@H](C)O [Compound 22] (H-HSQ[dA]TFTSDYSKYLD[Aib]ARAESFVKWLEST-OH) | 91.1 | 95.3 | ≥ 1000 | 24
2 | CC(C)C[C@H](NC(=O)[C@H](Cc1c[nH]c2ccccc12)NC(=O)[C@H](CCCCN)NC(=O)[C@@H](NC(=O)[C@H](Cc1ccccc1)NC(=O)[C@H](CO)NC(=O)[C@H](CCC(=O)O)NC(=O)[C@H](C)NC(=O)[C@H](CCCNC(=N)N)NC(=O)[C@H](C)NC(=O)C(C)(C)NC(=O)[C@H](CC(=O)O)NC(=O)[C@H](CC(C)C)NC(=O)[C@H](Cc1ccc(O)cc1)NC(=O)[C@H](CCCCN)NC(=O)[C@H](CO)NC(=O)[C@H](Cc1ccc(O)cc1)NC(=O)[C@H](CC(=O)O)NC(=O)[C@H](CO)NC(=O)[C@@H](NC(=O)[C@H](Cc1ccccc1)NC(=O)[C@@H](NC(=O)CNC(=O)[C@H](CCC(N)=O)NC(=O)[C@H](CO)NC(=O)[C@@H](N)Cc1c[nH]cn1)[C@@H](C)O)[C@@H](C)O)C(C)C)C(=O)N[C@@H](CCC(=O)O)C(=O)N[C@@H](CO)C(=O)N[C@H](C(N)=O)[C@@H](C)O [Compound 31] (H-HSQGTFTSDYSKYLD[Aib]ARAESFVKWLEST-NH2) | 93.1 | 91.7 | ≥ 1000 | 7.2
3 | CC(=O)NCC[C@H](NC(=O)[C@H](CO)NC(=O)[C@@H](N)Cc1c[nH]cn1)C(=O)NCC(=O)N[C@H](C(=O)N[C@@H](Cc1ccccc1)C(=O)N[C@H](C(=O)N[C@@H](CO)C(=O)N[C@@H](CC(=O)O)C(=O)N[C@@H](Cc1ccc(O)cc1)C(=O)N[C@@H](CO)C(=O)N[C@@H](CCCCN)C(=O)N[C@@H](Cc1ccc(O)cc1)C(=O)N[C@@H](CC(C)C)C(=O)N[C@@H](CC(=O)O)C(=O)NC(C)(C)C(=O)N[C@@H](C)C(=O)N[C@@H](CCCNC(=N)N)C(=O)N[C@@H](C)C(=O)N[C@@H](CCC(=O)O)C(=O)N[C@@H](CO)C(=O)N[C@@H](Cc1ccccc1)C(=O)N[C@H](C(=O)N[C@@H](CCCCN)C(=O)N[C@@H](Cc1c[nH]c2ccccc12)C(=O)N[C@@H](CC(C)C)C(=O)N[C@@H](CCC(=O)O)C(=O)N[C@@H](CO)C(=O)N[C@H](C(=O)O)[C@@H](C)O)C(C)C)[C@@H](C)O)[C@@H](C)O [Compound 32] (H-HS[Dab](Ac)GTFTSDYSKYLD[Aib]ARAESFVKWLEST-OH) | 91.2 | 96.3 | ≥ 1000 | 9.3
